From ChEMBL document CHEMBL5705903, “A DNA Hypomethylation Signature Predicts Antitumor Activity of LSD1 Inhibitors in SCLC” (Cancer Cell, 2015)
The source made the active and inactive calls. The calls are words filed in the database; no cut-off is given here.

Experiments:
[1] = Effect on cleaved PARP level in human COLO-668 cells assessed as relative expression at 1000 nM measured after 14 days by Western blot analysis (reference value: 3.50); assay type: functional; details: time 14 day
[2] = Toxicity in rat assessed as effect on ECG measured for 28 days; details: in vivo, 672 h, time 28 day
[3] = Effect on cleaved PARP level in human NCI-H524 cells assessed as fold change at 10 nM measured after 10 days by Western blot analysis (reference value: 1.00); assay type: functional; details: time 10 day
[4] = Toxicity in rat assessed as thrombocytopenia measured for 28 days; details: in vivo, 672 h, time 28 day
[5] = Effect on cleaved PARP level in human NCI-H510 cells assessed as fold change at 1000 nM measured after 10 days by Western blot analysis (reference value: 1.00); assay type: functional, NCI-H510A; details: time 10 day
[6] = Effect on cleaved PARP level in human NCI-H146 cells assessed as fold change at 1000 nM measured after 14 days by Western blot analysis (reference value: 1.00); assay type: functional; details: time 14 day
[7] = Effect on cleaved PARP level in human NCI-H510 cells assessed as fold change at 10 nM measured after 10 days by Western blot analysis (reference value: 1.00); assay type: functional, NCI-H510A; details: time 10 day
[8] = Effect on cleaved PARP level in human NCI-H1417 cells assessed as fold change at 1000 nM measured after 14 days by Western blot analysis (reference value: 1.00); assay type: functional; details: time 14 day
[9] = Effect on cleaved PARP level in human NCI-H146 cells assessed as relative expression at 10 nM measured after 7 days by Western blot analysis (reference value: […]); assay type: functional; details: time 7 day
[10] = Toxicity in rat assessed as congestion in lymphoid organs measured for 28 days; details: in vivo, 672 h, time 28 day
[11] = tested on: NCI-H510A; assay: Antitumor activity against human NCI-H510A cells xenografted in nude mouse assessed as tumor growth inhibition at 1.5 mg/kg, po administered daily measured twice weekly relative to control; assay type: functional; details: read-out: TGI
[12] = tested on: NCI-H2171; assay: Antitumor activity against human NCI-H2171 cells xenografted in nude mouse assessed as tumor growth inhibition at […] mg/kg, po administered daily measured twice weekly relative to control; assay type: functional; details: read-out: TGI
[13] = Effect on cleaved PARP level in human NCI-H146 cells assessed as relative expression at 1000 nM measured after 14 days by Western blot analysis (reference value: 2.42); assay type: functional; details: time 14 day
[14] = Effect on cleaved PARP level in human NCI-H889 cells assessed as fold change at 10 nM measured after 14 days by Western blot analysis (reference value: 1.00); assay type: functional; details: time 14 day
[15] = Toxicity in dog assessed as myelofibrosis measured for 28 days; design: species or system Canis lupus familiaris; details: in vivo, 672 h, time 28 day
[16] = Toxicity in rat assessed as suppression of erythroid maturation in bone marrow measured for 28 days; details: in vivo, 672 h, time 28 day
[17] = AUC (0 to last) in mouse tumor at 5 mg/kg, po by HPLC/MS/MS analysis; assay type: ADME, organism-based, Neoplasm
[18] = Effect on cleaved PARP level in human NCI-H524 cells assessed as relative expression at 10 nM measured after 7 days by Western blot analysis (reference value: 0.63); assay type: functional; details: time 7 day
[19] = molecular target: Lysine-specific histone demethylase 1A (Homo sapiens, UniProt O60341); details: NCI-H526, dose 1-10000 nM, time 1-7 day
Description: Inhibition of LSD1 in human NCI-H526 cells assessed as change in IGFBP2 gene expression treated for 1 to 7 days by qRT-PCR analysis

[20] = Toxicity in dog assessed as suppression of platelet in bone marrow measured for 28 days; assay type: cell-based, Canis lupus familiaris; details: 672 h, time 28 day
[21] = Effect on cleaved PARP level in human COLO-668 cells assessed as fold change at 1000 nM measured after 10 days by Western blot analysis (reference value: 1.00); assay type: functional; details: time 10 day
[22] = Effect on cleaved PARP level in human NCI-H889 cells assessed as relative expression at 1000 nM measured after 14 days by Western blot analysis (reference value: 0.94); assay type: functional; details: time 14 day
[23] = tested on: NCI-H1417; assay: Antitumor activity against human NCI-H1417 cells xenografted in nude mouse assessed as tumor growth inhibition at 1.5 mg/kg, po administered daily measured twice weekly relative to control; assay type: functional; details: read-out: TGI
[24] = Effect on cleaved PARP level in human NCI-H524 cells assessed as fold change at 1000 nM measured after 10 days by Western blot analysis (reference value: 1.00); assay type: functional; details: time 10 day
[25] = Effect on cleaved PARP level in human NCI-H69 cells assessed as relative expression at 10 nM measured after 10 days by Western blot analysis (reference value: 0.03); assay type: functional; details: time 10 day
[26] = Effect on cleaved PARP level in human NCI-H2171 cells assessed as fold change at 10 nM measured after 14 days by Western blot analysis (reference value: 1.00); assay type: functional; details: time 14 day
[27] = tested on: COLO-668; assay: Effect on NCAM gene expression in human COLO-668 cells at 1 uM measured after 4 days by qRT-PCR analysis; assay type: functional, cell-based; details: time 4.0 day
[28] = tested on: NCI-H526; assay: In vivo inhibition of LSD1 in human NCI-H526 cells xenografted in nude mouse assessed as change in TSPAN8 gene expression administrated daily for 5 days by qRT-PCR analysis; assay type: functional, organism-based; details: dose 0.02-135 mg/kg, time 5.0 day
[29] = Effect on cleaved PARP level in human NCI-H2171 cells assessed as fold change at 100 nM measured after 14 days by Western blot analysis (reference value: 1.00); assay type: functional; details: time 14 day
[30] = AUC (0 to infinity) in mouse blood at 5 mg/kg, po by HPLC/MS/MS analysis; assay type: ADME, organism-based
[31] = Toxicity in rat assessed as neutrophenia measured for 28 days; details: in vivo, 672 h, time 28 day
[32] = Effect on cleaved PARP level in human NCI-H526 cells assessed as relative expression at 100 nM measured after 7 days by Western blot analysis (reference value: 0.57); assay type: functional; details: time 7 day
[33] = Cmax in mouse tumor at 5 mg/kg, po by HPLC/MS/MS analysis; assay type: ADME, organism-based, Neoplasm
[34] = Half life in mouse tumor at 5 mg/kg, po by HPLC/MS/MS analysis; assay type: ADME, organism-based, Neoplasm
[35] = Effect on cleaved PARP level in human NCI-H1417 cells assessed as fold change at 1000 nM measured after 10 days by Western blot analysis (reference value: 1.00); assay type: functional; details: time 10 day
[36] = tested on: NCI-H526; assay: In vivo inhibition of LSD1 in human NCI-H526 cells xenografted in nude mouse assessed as change in KIAA1644 gene expression administrated daily for 5 days by qRT-PCR analysis; assay type: functional, organism-based; details: dose 0.02-135 mg/kg, time 5.0 day
[37] = Effect on cleaved PARP level in human NCI-H146 cells assessed as fold change at 10 nM measured after 10 days by Western blot analysis (reference value: 1.00); assay type: functional; details: time 10 day
[38] = Effect on cleaved PARP level in human NCI-H2171 cells assessed as relative expression at 1000 nM measured after 14 days by Western blot analysis (reference value: 0.01); assay type: functional; details: time 14 day
[39] = tested on: NCI-H146; assay: Effect on NSE gene expression in human NCI-H146 cells at 1 uM measured after 4 to 7 days by qRT-PCR analysis; assay type: functional, cell-based; details: time 4-7 day

**Q.** What does the source list for `O=C(O)c1ccc(CN2CCC(CN[C@@H]3C[C@H]3c3ccccc3)CC2)cc1` [GSK2879552]?
**A.** Activity [1]: 1.02; Activity [2]: Toxic; fold change (FC) [3]: 0.81; Activity [4]: Toxic; fold change (FC) [5]: 12.67; fold change (FC) [6]: 0.6; fold change (FC) [7]: 4.22; fold change (FC) [8]: 1.1; Activity [9]: 2.37; Activity [10]: Toxic; inhibition in vivo at 1.5 mg/kg [11]: 38%; inhibition in vivo at 1.25 mg/kg [12]: 37%; Activity [13]: 1.45; fold change (FC) [14]: 1.84; Activity [15]: Toxic; Activity [16]: Toxic; AUC(0-t) [17]: 2320 ng·h/mL; Activity [18]: 0.62; inhibition [19]: Dose-Dependent Effect; Activity [20]: Toxic; fold change (FC) [21]: 0.59; Activity [22]: 2.65; inhibition in vivo at 1.5 mg/kg [23]: 83%; fold change (FC) [24]: 0.83; Activity [25]: 0.06; fold change (FC) [26]: 0.9; Activity [27]: inactive; inhibition [28]: Dose-Dependent Effect; fold change (FC) [29]: 1.8; AUC(0-inf) [30]: 903 ng·h/mL; Activity [31]: Toxic; Activity [32]: 0.68; Cmax [33]: 355 ng/mL; half-life [34]: 8.4 h; fold change (FC) [35]: 2.12; inhibition [36]: Dose-Dependent Effect; fold change (FC) [37]: 1.24; Activity [38]: 0.02; Activity [39]: inactive
